Patent EP3095787A1, “[…] ACTIVE COMPOUNDS AS DAG-LIPASE INHIBITORS” (Universiteit Leiden, priority 2015, dated 2016)

What was measured:
hDAGL-α [1] = target: T1, hDAGL-α (Homo sapiens, UniProt Q9Y4D2); assay: Biochemical hDAGL-α activity assay (PNP-butyrate hydrolysis, 96 well plate); set-up: expressed in transfected cells; host or cells: HEK293T (transient), membrane fraction; conditions: PNP-butyrate 0.3 mM, membranes of HEK293T cells transfected with hDAGL-α
T1 sequence (Q9Y4D2 1-1042): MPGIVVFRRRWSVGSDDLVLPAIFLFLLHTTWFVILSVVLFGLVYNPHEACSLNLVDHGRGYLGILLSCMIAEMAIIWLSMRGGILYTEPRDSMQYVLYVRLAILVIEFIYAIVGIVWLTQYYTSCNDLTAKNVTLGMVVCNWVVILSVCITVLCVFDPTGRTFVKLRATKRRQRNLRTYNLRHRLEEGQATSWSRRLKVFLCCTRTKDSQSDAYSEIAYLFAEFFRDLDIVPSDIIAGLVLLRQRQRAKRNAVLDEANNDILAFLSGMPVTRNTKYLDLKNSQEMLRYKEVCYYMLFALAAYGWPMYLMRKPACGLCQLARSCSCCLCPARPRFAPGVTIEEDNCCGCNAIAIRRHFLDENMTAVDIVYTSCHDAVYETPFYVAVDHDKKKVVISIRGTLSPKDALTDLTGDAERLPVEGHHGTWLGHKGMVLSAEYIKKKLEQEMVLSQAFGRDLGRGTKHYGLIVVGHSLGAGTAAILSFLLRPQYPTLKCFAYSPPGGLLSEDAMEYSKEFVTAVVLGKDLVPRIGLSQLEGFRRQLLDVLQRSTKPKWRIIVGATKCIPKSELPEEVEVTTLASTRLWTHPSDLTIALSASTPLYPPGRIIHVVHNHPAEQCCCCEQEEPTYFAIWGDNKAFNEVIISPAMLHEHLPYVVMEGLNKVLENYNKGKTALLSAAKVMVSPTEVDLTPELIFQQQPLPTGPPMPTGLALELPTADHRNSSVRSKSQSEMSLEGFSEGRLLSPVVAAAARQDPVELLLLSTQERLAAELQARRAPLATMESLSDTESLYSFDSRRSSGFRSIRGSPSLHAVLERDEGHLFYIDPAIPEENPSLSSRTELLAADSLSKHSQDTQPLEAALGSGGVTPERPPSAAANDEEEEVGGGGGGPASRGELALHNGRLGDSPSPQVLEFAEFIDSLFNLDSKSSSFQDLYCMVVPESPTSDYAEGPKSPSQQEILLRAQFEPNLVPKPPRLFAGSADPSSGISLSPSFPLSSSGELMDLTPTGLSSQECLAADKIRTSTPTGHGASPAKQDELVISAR
Experimental: The biochemical hDAGL-α activity assay is based on the hydrolysis of para-nitrophenylbutyrate (PNP-butyrate) by membrane preparations from HEK293T cells transiently transfected with hDAGL-α. 200 µL reactions were performed in flat bottom Greiner 96-wells plates in a 50 mM pH 7.2 Hepes buffer. Membrane protein fractions from HEK293T cells transiently transfected with hDAGL-α (0.05 µg/µL final concentration) were used as hDAGL-α source. Compounds to be tested were introduced in 5 µL DMSO. The mixtures were incubated for 30 minutes before 5.0 µL 12 mM PNP-butyrate (final concentration 0.3 mM) in DMSO was added (final DMSO concentration 5.0%). Kinetics were followed immediately after addition of PNP-butyrate on a plate reader (TECAN GENios® microplate reader), by measuring the OD420 every 60 seconds, for 20 minutes at 37°C. The slope of the linear region from 5-15 minutes was determined, and all experiments were performed at N = 2, n = 2 for experimental measurements and N = 2, n = 4 for controls.
Data analysis: Z'-factor of each plate was determined for the validation of each experiment, using the following formula Z' = 1-3(σpc + σnc)/(µpc - µnc). The slope from 5-15 minutes of the positive control (pc: hDAGL-α, DMSO), and the negative control (nc: Mock, DMSO) was used. Plates were accepted for further analysis when Z' > 0.6. Kinetic measurements were corrected for the average absorption of the negative control (mock, DMSO). The slope of the linear region from 5-15 minutes was determined. The average, standard deviation (SD) and standard error of mean (SEM) were calculated and normalized to the corrected positive control. Data was exported to Graphpad Prism 5.0 for the calculation of the pIC50 using a nonlinear dose-response analysis.

hDAGL-α [2] = target: T1, hDAGL-α; assay: DAGL-α natural substrate assay (SAG hydrolysis, glycerol based real-time fluorescence assay); assay type: biochemical; set-up: expressed in transfected cells; host or cells: HEK293T (transient), membrane preparation; conditions: for pIC50: n=4
Source text: To confirm that compound 25 was also able to block conversion of the natural substrate 1-stearoyl-2-arachidonoyl-sn-glycerol of DAGL-α to the endocannabinoid 2-AG, the inventors employed a real-time, fluorescence-based assay. The DAGL-α natural substrate assay is based on the production of 2-AG from 1-stearoyl-2-arachidonoyl-sn-glycerol (SAG) hydrolysis by DAGL-α-overexpressing membrane preparations from transiently transfected HEK293T cells. The 2-AG production is coupled to the oxidation of commercially available Amplifu™Red via a multi-enzyme cascade, resulting in a fluorescent signal from the dye resorufin.
Standard assays were performed in HEMNB buffer (50 mM HEPES pH 7.4, 1 mM EDTA, 5 mM MgCl2, 100 mM NaCl, 0.5% (w/v) BSA) in black, flat clear-bottom 96-wells plates (Greiner). Final protein concentration of membrane preparations from DAGL-α-overexpressing HEK293T cells was 50 µg/mL (10 µg per well). Inhibitors were added from 40x concentrated DMSO stocks. A substrate solution of 1-stearoyl-2-arachidonoyl-sn-glycerol was prepared just prior to use. The SAG stock solution (10 mg/mL in methyl acetate) was dried under argon and subsequently dissolved in 50 mM HEPES buffer (pH 7.0) containing 0.75% (w/v) Triton X-100. The substrate solution was mixed to form an emulsion and stored on ice until use.
DAGL-α-overexpressing membranes were incubated with inhibitor for 20 min. Subsequently, assay mix containing glycerol kinase (GK), glycerol-3-phosphate oxidase (GPO), horseradish peroxidase (HRP), adenosine triphosphate (ATP), monoacylglycerol lipase (MAGL), Amplifu™Red and 1-stearoyl-2-arachidonoyl-sn-glycerol (SAG) was added and fluorescence was measured in 5 min intervals for 60 min on a GENios microplate reader (Tecan, Giessen, The Netherlands).
Standard assay concentrations: 0.2 U/mL GK, GPO and HRP, 0.125 mM ATP, 5 µg/mL MAGL-overexpressing membranes, 10 µM Amplifu™Red, 100 or 150 µM SAG, 5% DMSO, 0.0075% (w/v) Triton X-100 in a total volume of 200 µL.

[3] = natural substrate 1-stearoyl-2-arachidonoyl-sn-glycerol

Structure (SMILES)	DAGL-α Activity assay pIC50 (hDAGL-α [1])	pIC50 (hDAGL-α [2]; [3])	IC50 (hDAGL-α [1]; read-out: DAGL-α Activity assay pIC50 (converted)) [nM]	pIC50 (hDAGL-α [2]; glycerol based natural substrate assay, figure legend prints nM, unit of the source corrected)	fold increase compared to compound 1 (hDAGL-α [2]; natural substrate assay) [fold]
O=C(CCCCCc1ccccc1)c1nc2ncccc2o1 [Compound 1, 1-(Oxazolo[4,5-b]pyridin-2-yl)-6-phenylhexan-1-one, reference compound]	7.43	6.3 ± 0.1	–	–	–
Cc1ccc(-c2cnc3nc(C(=O)CCCCCc4ccccc4)oc3c2)cc1 [Compound 25, 1-(6-(p-Tolyl)oxazolo[4,5-b]pyridin-2-yl)-6-phenylhexan-1-one]	–	7.9 ± 0.08	3.02	7.9 ± 0.08	40
